# Patent US20230066065A1, “USE OF LOW DOSES OF HYDROXYCHLOROQUINE FOR THE TREATMENT OF LIPIN-1 DEFICIENCY” (Institut National de la Santé et de la Recherche Médicale …, priority 2020, published 2023)
# Where “and” joins values, the source holds several entries; their conditions need not be identical. Equal entries are not always repeated. Entries after “also recorded” stand apart in the source; their conditions may differ.
# Experiments:
# [1] = system: IL8; assay: Plasma cytokine concentration, Cytometric Bead Assay; assay type: in vivo, human; settings: all patients tested, following vs prior treatment
# Procedure: (§1) Cytokine concentrations were measured in plasma using a ten-plex Cytometric Bead Assay (CBA) kit from BD Biosciences, according to the manufacturer's instructions, then analyzed by flow cytometry (ARIA II; BD Biosciences) with CBA Analysis Software (FCAP Array version 3.0; Soft Flow, St Louis Park, Minn.). The results were expressed in picograms per milliliter.
# [2] = system: MCP-1; assay: as above; assay type: in vivo, human; settings: all patients tested, following vs prior treatment
# Procedure: as §1
# [3] = system: patients with Lipin-1 deficiency; assay: Cardiopulmonary exercise test, cycle ergometer (dQ/dVO2); assay type: in vivo, human
# Procedure: Patients≥6 years old underwent cardiopulmonary exercise tests (CPETs). CPETs were performed to assess the maximal exercise capacity using a cycle ergometer^11. The CPET data were compared with retrospectively collected data from a population of 21 paired children who required non-invasive cardiac output monitoring because of dyspnoea during exercise or chest pain and were considered healthy at the end of the examinations. Pairing was conducted according to sex and age. Oxygen uptake (VO2) and carbon dioxide output were measured breath-by-breath by an automated system (Sensor Medic, MSE). Measurements were taken at rest and every 20 s throughout exercise and recovery. The exercise test was considered maximal if the patient achieved a respiratory exchange ratio (RER)>1.1 and/or a maximal heart rate>85% of the theoretical maximal heart rate, and/or the oxygen uptake reached a plateau^11. Cardiac output (Q) and stroke volume (SV) were determined noninvasively during the exercise test using a thoracic bioelectrical impedance device (PhysioFlow, PF-05 Lab 1, Manatec Biomedical) as routinely performed in our centre. We calculated the slope of the relationship between cardiac output and oxygen utilization (dQ/dVO2) using measurements of Q and VO2 at rest as well as during submaximal and maximal exercise.
# [4] = system: Lipin-1 deficient myoblasts; assay: MtDNA levels by qPCR in myoblasts under immunometabolic stress; assay type: cell-based, human; settings: myoblasts of P1, P4, P6 and P11; results need to be reproduced
# Procedure: (§2) Human primary myoblasts were isolated and grown as described^19. Briefly, CD56+ myoblasts isolated by flow cytometry cell sorting were maintained in HamF10 medium supplemented with 20% fetal calf serum on culture plates coated with 1% gelatin. To mimic RM, F10 medium was replaced by EBSS ([…]) (4 h) with TLR9 agonist CpGA (ODN2216) at the concentration of 10 μg/ml. Myoblasts were incubated with various HCQ concentrations (0.1 to 10 μM) 18 h before and during myoblasts starvation.
# MtDNA levels was performed by using qPCR for the mitochondrial12S gene reported to the nuclear β-actin gene. Quantitative PCR was performed in triplicate using the Light Cycler VIIA7 System (Roche).
# [5] = system: TLR9; assay: Relative TLR9 expression in myoblasts, RT-qPCR; assay type: cell-based, human; settings: patient and control myoblasts; EBSS + CpG-A
# Description: FIG. 7.(A-C) Relative TLR9 expression in Lipin-1 deficient and control myoblasts; comparison between basal condition and immunometabolic stress (A-B) and after HCQ treatment compared to immunometabolic stress (C); RT-qPCR. compared to basal condition in myoblasts. GM: growth medium; E: EBSS; C: CpG-A; HCQ: Hydroxychloroquine.
# as §2
# [6] = system: primary patients myoblasts; assay type: cell-based, human
# Description: Then, we were interested in the dosage og HCQ in vitro in order to analyse the HCQ incorporation in primary patients myoblasts.
# [7] = system: patients with Lipin-1 deficiency; assay: Evaluation of the tolerance of HCQ (allergy, abdominal pain, eye fundus, retinogram); assay type: in vivo, human
# [8] = system: patients with Lipin-1 deficiency; assay: Echocardiography (LVEF); assay type: in vivo, human
# Procedure: Echocardiography was performed using a Vivid 9 system (General Electric Vingmed Ultrasound, Horten, Norway). Transducers ([…]) were chosen based on patient size and morphology to obtain the best image resolution. Images were acquired and stored in a digital format by two experienced examiners for offline analysis using EchoPac version 112.0.1 software (General Electric Vingmed). All records were performed while the patient was in sinus rhythm under continuous monitoring via electrocardiogram. All measurements of ventricular dimensions and function were performed according to the guidelines of the American and European Societies of Echocardiography^51.
# The global longitudinal strain of the left ventricle was defined as the percentage of change during myocardial deformation and was evaluated through the speckle-tracking method using EchoPac (2D strain Q analysis) version 112.0.1 (General Electric Vingmed)^11.
# [9] = Dosage of Hydroxychloroquine in blood/plasma of treated patients; assay type: in vivo, human
# Procedure: Clinical and biological parameters were evaluated in parallel of the dosage of HCQ, performed on total blood samples with HPLC. Biological parameter consisted in measuring pro-inflammatory cytokines in plasma with […]. Physical condition included muscle pain (VAS score), quality-of-life assessment (PedsQL™ score), the distance walked during the 6-minute test, the number of steps climbed during the 3-minute test, cardiac function and sub-maximal exercise test. In vitro studies were performed on primary myoblasts from 4 patients and healthy controls. Autophagy was analyzed by measuring the ratio between LC3-II and B-actin by Western Blot. Oxidized DNA was studied by immunofluorescence staining. MtDNA levels was performed by using qPCR.
# The dosage of Hydroxychloroquine was performed on total blood samples at a rate of 5 ml per assay tube, using EDTA tubes, and stored at +4° C. (dosages performed in the pharmacology/toxicology Department of the Hospital Cochin and Hospital La Pitié-Salpétrière).
# [10] = system: CYP3A4/CYP2C8; settings: cited from earlier work
# [11] = system: patients with Lipin-1 deficiency; assay: Off open-label use phases 1 and 2 study: number of rhabdomyolysis (RM) episodes under HCQ; assay type: in vivo, human
# Procedure: Ten patients with Lipin-1 deficiency were progressively enrolled in an off open-label use phases 1 and 2 study to assess safety, clinical, and biological effects of Hydroxychloroquine Sulfate (HCQ). The diagnosis of Lipin-1 disease was confirmed in all patients (Table 1). LPIN1 genotyping was performed by PCR analysis of DNA isolated from blood as previously described^2. The patients presented severe episodes of acute RM (1 to 6) defined as creatine kinase (CK) levels >6 000 U/L (normal<160 U/L), associated with mild viral illness, fasting, or prolonged exercise. Chronic symptoms such as muscle pain, fatigability, exercise intolerance, or more rarely cardiac feature were associated in 6 patients.
# The patients were treated with oral HCQ at an initial posology of 6.5 mg/Kg/day in one intake, not exceeding 400 mg/day, with different treatment duration depending on the patient (Table 2). Tablets (200 mg) were proposed to patients over 6 years old, and soluble form to patients under 6 years old.
# Efficacy and safety of HCQ in patients were assessed by clinical and biological evaluation determined at baseline before HCQ treatment and at regular intervals after initiation of HCQ treatment (every 3 to 6 months).
# The clinical parameters encompassed the RM episode number and several standardized tools based on age at study start: auto evaluations assessing the muscle pain and the quality of life, 6-Minute Walk Test, 3-Minute Step Test, heart ultrasounds, and exercise tolerance test in the subgroup of subjects>6 years old^11.
# The patients were treated with oral HCQ at a initial posology of 6.5 mg/Kg/day in one intake, not exceeding 400 mg/day, with different treatment duration depending on the patient (Table 2). The data were collected at the Necker Hospital (Reference Center of Metabolic diseases) during the visits: M0 (before treatment), M3 (3 months treatment), M6 then every 6 months. The efficacy outcome of the treatment was measured by clinical and biological endpoints.
# [12] = system: patients with Lipin-1 deficiency; assay: Muscle pain (VAS) and quality-of-life (PedsQL) questionnaires; assay type: in vivo, human
# Description: VAS questionnaire was completed by the patient and their parents for evaluating muscle pain, ranged from score 4: not painful, to 40: very painful. Two Quality-of-life assessment ([…]) adapted to the age of the patient were completed by either the patient or their parents. The score ranged from 0: very good quality of life, to 92: very bad quality of life.
# [13] = system: LC3-II in Lipin-1 deficient and control myoblasts; assay: Autophagy: LC3-II/B-actin ratio by Western Blot in primary myoblasts under immunometabolic stress (EBSS + CpG-A); assay type: cell-based, human
# Procedure: as §2
# Autophagy measurements. Autophagy was analyzed using the LC3-II/B-actin ratio by Western Blot. The following antibodies used in this study were: mouse-anti-β-actin (sc-81178, Santa Cruz Biotechnology, western blotting (WB): 1:5000), mouse-anti-LC3B (clone 4E12, MBL International, IF: 1:100).
# [14] = system: patients with Lipin-1 deficiency; assay: 6-Minute Walk Test and 3-Minute Step Test; assay type: in vivo, human; settings: patients older than 6 y; versus prior treatment
# Procedure: Muscle function was assessed by walking capacity within a 6-Minute Walk Test (6 MWT)^48,49 and by stair climbing capacity within a 3-Minute Step Test (3 MST)^50. The objectives were to walk and climb steps as far as possible for 6 and 3 minutes respectively.
# [15] = system: Lipin-1 deficient myoblasts; assay: Oxidized DNA (8-OHdG) immunofluorescence staining in myoblasts under immunometabolic stress; assay type: cell-based, human
# Procedure: as §2
# Imuunofluorescence staining. Oxidized DNA on fixed cells was detected with mouse-anti-8-OHdG (sc-66036, Santa Cruz Biotechnology, IF: 1:100)^54 and analyzed by confocal fluorescence microscopy. Images were recorded on a confocal LSM 700 microscope (Zeiss), with a 63× oil immersion objective and quantification was performed by analyzing cells on the Icy software (v 1.9.5.1 BioImage Analysis unit, Institut Pasteur, France).
compound,measurement,setting,value
"CCN(CCO)CCCC(C)Nc1ccnc2cc(Cl)ccc12.O=S(=O)(O)O (centres unmarked) [HCQ, 2-[[4-[(7-Chloro-4-quinolyl)amino]pentyl]ethylamino] ethanol sulfate (1:1)]",plasma level of IL8,[1],reduced
same,plasma level of MCP-1,[2],reduced
same,"dQ/dVO2 ratio after initiation of treatment, global mean","[3]; four patients with abnormal peripheral muscle, baseline means 7, 9.5, 9.1, 7.5",5.8
same,"dQ/dVO2 ratio under treatment, mean","[3]; patient P3 with cardiac failure, baseline mean 4",4.8
same,accumulation of mtDNA under immunometabolic stress,[4],prevents this accumulation
same,TLR9 expression under stress condition,[5],variable effect; also recorded: could not decrease TLR9 expression
same,HCQ incorporation in primary myoblasts,[6],HCQ incorporation is effective
same,Electroretinogramms and eye fundus,"[7]; 12 months of treatment, all patients tested",normal
same,allergy symptoms with HCQ treatment,[7]; all patients,Any allergy symptoms have been observed
same,tolerance of HCQ in patients,[7]; overall,well tolerated
same,Side effects associated with HCQ,[7]; patients 5 and 6,abdominal pain
same,LVEF,"[8]; patient P3, M3 of treatment, 45% before",62%
same,LVEF,"[8]; patient P3, M6, M9, M12 following treatment",63%
same,LVEF,"[8]; patient P3, after they stopped treatment",55%
same,plasma HCQ levels,"[9]; P5 and P6, who experimented RM, oral 6.5 mg/Kg/day",1000 ng/mL
same,Plasma HCQ (μg/L) mean,"[9]; patient P1-P10, oral HCQ, mean of visits",107 µg/L and 724 µg/L and 627 µg/L and 1048 µg/L and 1040 µg/L and 290 µg/L and 610 µg/L and 407 µg/L and 752 µg/L and 318 µg/L
same,Plasma HCQ (μg/L) (median),"[9]; patient P1-P10, oral HCQ, median of visits",(107) μg/L and (854) μg/L and (597) μg/L and (955) μg/L and (1092) μg/L and (205) μg/L and (610) μg/L and (367) μg/L and (733) μg/L and 325) μg/L
same,Levels of HCQ measured at each visit,"[9]; patients other than P5 and P6, oral 6.5 mg/Kg/day",~400 ng/mL
same,share of the HCQ metabolism by CYP3A4/CYP2C8,[10],80%
same,patients without new acute RM under treatment,"[11]; of 10 patients, 29 RM prior to treatment",Seven
same,RM after resumption of treatment,[11]; patient P1,No other RM was observed
same,RM after HCQ disruption,"[11]; patient P1, discontinued at M9, within 6 weeks after disruption",underwent extensive RM
same,Number of severe RM (CPK > 10k U/L) during treatment,"[11]; patient P1-P10, oral HCQ, initial 6.5 mg/Kg/day, treatment duration 12-41 months",0 (7×) and 1 and 3 and 4
same,episodes of RM despite HCQ,"[11]; patient P5, context of gastroenteritis",one
same,episodes of RM despite HCQ,"[11]; patient P6, context of gastroenteritis",two
same,benefit effect of HCQ,[11]; patient P7,had not seem to have benefit effect
same,"VAS pain score, change under treatment",[12]; 2 other patients,no difference
same,"VAS pain score, median following treatment","[12]; 4 patients, score 4 not painful - 40 very painful, median 12.25 prior treatment",7
same,PedsQL quality-of-life median score under treatment,"[12]; 6 patients, 0 very good - 92 very bad, score 25 before treatment",17.1
same,LC3-II accumulation (autophagy blockage) under immunometabolic stress,"[13]; HCQ 10 μM, control and patients myoblasts",potentiates LC3-II accumulation
same,LC3-II accumulation (autophagy blockage) under immunometabolic stress,[13]; HCQ 0.1 and 1 μM,less deleterious
same,increase of median score in 3 MST following treatment,[14],31 steps
same,increase of median score in 6 MWT following treatment,[14],~100 meters
same,oxDNA levels in myoblasts,[15]; HCQ 0.1 to 10 μM,normalized oxDNA levels
same,accumulation of oxDNA under immunometabolic stress,"[15]; myoblasts of P1, P4, P6 and P11, EBSS + CpG-A",prevents this accumulation
